The compounds below were run against SHP2 (Homo sapiens (Human), UniProt Q06124) (assay: SHP2 allosteric inhibition assay (DiFMUP substrate, bisphos-IRS1 peptide activation)). Conditions: 0.33 nM SHP2, 0.5 μM bisphos-IRS1 peptide, 100 uM DiFMUP, room temperature.
Type: biochemical
Procedure: At the basal state, SHP2 is auto-inhibited and access of substrates to the catalytic site is blocked by the […] interactions between the SH2 domains and the PTP domain. When bis-tyrosyl-phosphorylated peptides bind to SH2 domain of SHP2, the PTP domain becomes available for substrate recognition and reaction catalysis and SHP2 is allosterically activated. SHP2 catalytic activity can be measured using a fluorogenic artificial substrate DiFMUP.
The phosphatase reactions were carried out at room temperature in 384-well black polystyrene plates (Greiner Bio-One, Cat #784076) using assay buffers containing 60 mM HEPES, pH 7.2, 75 mM NaCl, 75 mM KCl, 1 mM EDTA, 0.05% P-20, and 5 mM DTT.
0.33 nM of SHP2 was co-incubated with of 0.5 μM of bisphos-IRS 1 peptide (sequence: H2N-LN(pY)IDLDLV(dPEG8)LST(pY)ASINFQK-amide) and various concentrations of compounds for 30-60 min at room temperature. Then the reaction was initiated by addition of the surrogate substrate DiFMUP (Invitrogen, Cat #D6567, 100 uM final).
The real-time conversion of DiFMUP to DiFMU (6,8-difluoro-7-hydroxyl-4-methyl-coumarin) was measured every 5 min for 30 min using a microplate reader (CLARIOstar, BMG Labtech) with excitation and emission wavelengths of 340 nm and 450 nm, respectively. Initial reaction rates were determined by linear fitting of the data and the inhibitor dose response curves were analyzed using normalized IC50 regression curve fitting with control-based normalization.

| Compound | IC50 [nM] |
| --- | --- |
| COC[C@H]1C[C@H]2COc3c(Sc4cnc(N5CCC6(CC5)CO[C@@H](C)[C@H]6N)cn4)ccnc3N2C1 [Compound 43, (3S,4S)-8-(5-(((6aS,8S)-8-(methoxymethyl)-6a,7,8,9-tetrahydro-6H-pyrido[3,2-b]pyrrolo[1,2-d][1,4]oxazin-4-yl)thio)pyrazin-2-yl)-3-methyl-2-oxa-8-azaspiro[4.5]decan-4-amine] | 4.5 |
| COC[C@H]1C[C@H]2COc3c(Sc4ncc(N5CCC6(CC5)CO[C@@H](C)[C@H]6N)nc4N)ccnc3N2C1 [Compound 45, (3S,4S)-8-(6-amino-5-(((6aS,8S)-8-(methoxymethyl)-6a,7,8,9-tetrahydro-6H-pyrido[3,2-b]pyrrolo[1,2-d][1,4]oxazin-4-yl)thio)pyrazin-2-yl)-3-methyl-2-oxa-8-azaspiro[4.5]decan-4-amine] | 9.4 |
| COCOC[C@H]1C[C@H]2COc3c(Sc4cnc(N5CCC6(CC5)Cc5ncccc5[C@H]6N)cn4)ccnc3N2C1 [Compound 46, (S)-1′-(5-(((6aS,8S)-8-((methoxymethoxy)methyl)-6a,7,8,9-tetrahydro-6H-pyrido[3,2-b]pyrrolo[1,2-d][1,4]oxazin-4-yl)thio)pyrazin-2-yl)-5,7-dihydrospiro[cyclopenta[b]pyridine-6,4′-piperidin]-5-amine] | 3.9 |
| COCOC[C@H]1C[C@H]2COc3c(Sc4ncc(N5CCC6(CC5)Cc5ncccc5[C@H]6N)nc4N)ccnc3N2C1 [Compound 47, (S)-1′-(6-amino-5-(((6aS,8S)-8-((methoxymethoxy)methyl)-6a,7,8,9-tetrahydro-6H-pyrido[3,2-b]pyrrolo[1,2-d][1,4]oxazin-4-yl)thio)pyrazin-2-yl)-5,7-dihydrospiro[cyclopenta[b]pyridine-6,4′-piperidin]-5-amine] | 8.4 |
| COCOC[C@H]1C[C@H]2COc3c(Sc4cnc(N5CCC6(CC5)Cc5ncccc5[C@H]6N)c(CO)n4)ccnc3N2C1 [Compound 48, (3-((S)-5-amino-5,7-dihydrospiro[cyclopenta[b]pyridine-6,4′-piperidin]-1′-yl)-6-(((6aS,8S)-8-((methoxymethoxy)methyl)-6a,7,8,9-tetrahydro-6H-pyrido[3,2-b]pyrrolo-[1,2-d][1,4]oxazin-4-yl)thio)pyrazin-2-yl)methanol] | 3.3 |

Second part, the compound after the results:

| IC50 [nM] | Compound |
| --- | --- |
| 5.9 | COCOC[C@H]1C[C@H]2COc3c(Sc4cnc(N5CCC6(CC5)CO[C@@H](C)[C@H]6N)cn4)ccnc3N2C1 [Compound 42, (3S,4S)-8-(5-(((6aS,8S)-8-((methoxymethoxy)methyl)-6a,7,8,9-tetrahydro-6H-pyrido[3,2-b]pyrrolo[1,2-d][1,4]oxazin-4-yl)thio)pyrazin-2-yl)-3-methyl-2-oxa-8-azaspiro[4.5]decan-4-amine] |
| 5.9 | COCOC[C@H]1C[C@H]2COc3c(Sc4ncc(N5CCC6(CC5)CO[C@@H](C)[C@H]6N)nc4N)ccnc3N2C1 [Compound 44, (3S,4S)-8-(6-amino-5-(((6aS,8S)-8-((methoxymethoxy)methyl)-6a,7,8,9-tetrahydro-6H-pyrido[3,2-b]pyrrolo[1,2-d][1,4]oxazin-4-yl)thio)pyrazin-2-yl)-3-methyl-2-oxa-8-azaspiro[4.5]decan-4-amine] |
| 12 | COCOC[C@H]1C[C@H]2COc3c(Sc4nc(CO)c(N5CCC6(CC5)CO[C@@H](C)[C@H]6N)nc4C)ccnc3N2C1 [Compound 49, (3-((3S,4S)-4-amino-3-methyl-2-oxa-8-azaspiro[4.5]decan-8-yl)-6-(((6aS,8S)-8-((methoxymethoxy)methyl)-6a,7,8,9-tetrahydro-6H-pyrido[3,2-b]pyrrolo[1,2-d][1,4]oxazin-4-yl)thio)-5-methylpyrazin-2-yl)methanol] |
| 3.5 | COCOC[C@@H]1C[C@H]2COc3c(Sc4cnc(N5CCC6(CC5)CO[C@@H](C)[C@H]6N)c(CO)n4)ccnc3N2C1 [Compound 50, (3-((3S,4S)-4-amino-3-methyl-2-oxa-8-azaspiro[4.5]decan-8-yl)-6-(((6aS,8R)-8-((methoxymethoxy)methyl)-6a,7,8,9-tetrahydro-6H-pyrido[3,2-b]pyrrolo[1,2-d][1,4]oxazin-4-yl)thio)pyrazin-2-yl)methanol] |
| 4.9 | COCOC[C@H]1C[C@@H]2COc3c(Sc4cnc(N5CCC6(CC5)CO[C@@H](C)[C@H]6N)c(CO)n4)ccnc3N2C1 [Compound 51, (3-((3S,4S)-4-amino-3-methyl-2-oxa-8-azaspiro[4.5]decan-8-yl)-6-(((6aR,8S)-8-((methoxymethoxy)methyl)-6a,7,8,9-tetrahydro-6H-pyrido[3,2-b]pyrrolo[1,2-d][1,4]oxazin-4-yl)thio)pyrazin-2-yl)methanol] |
| 3.7 | COCOC[C@@H]1C[C@@H]2COc3c(Sc4cnc(N5CCC6(CC5)CO[C@@H](C)[C@H]6N)c(CO)n4)ccnc3N2C1 [Compound 52, (3-((3S,4S)-4-amino-3-methyl-2-oxa-8-azaspiro[4.5]decan-8-yl)-6-(((6aR,8R)-8-((methoxymethoxy)methyl)-6a,7,8,9-tetrahydro-6H-pyrido[3,2-b]pyrrolo[1,2-d][1,4]oxazin-4-yl)thio)pyrazin-2-yl)methanol] |

Reference: patent US10894797B2, “Fused tricyclic ring derivatives as SRC homology-2 phosphatase inhibitors” (Nikang Therapuetics, Inc., priority 2018, dated 2021)
